Test results published in patent US8067390B2, “Therapeutic targeting of interleukins using siRNA in neutral liposomes” (The Board of Regents of the University of Texas System, priority 2007, dated 2011).
“And” between values parts separate entries of the source, which are not always exact repeats. Equal entries are not always repeated. “Also recorded” adds a separate entry of the source.

Columns and labels:
HeyA8 [1] = assay: IL-8 siRNA therapy in orthotopic murine ovarian cancer model, HeyA8; format: in vivo, mice
Source text: (§1) Cell lines and cultures. The derivation and source of the epithelial ovarian cancer cell lines HeyA8 and SKOV3ip1 have been previously described (Halder et al., 2006; Landen et al., 2005). The taxane-resistant cell line, SKOV3ip2.TR (a gift from Dr. Isaiah J. Fidler, M.D. Anderson Cancer Center [MDACC], Houston, Tex.), was derived from the SKOV3ip1 cells following serial passages in media containing paclitaxel. All cell lines were maintained and propagated in RPMI-1640 media supplemented with 15% fetal bovine serum and 0.1% gentamicin sulfate (Gemini Bioproducts, Calabasas, Calif.). SKOV3ip2.TR media also contained 100-150 ng/ml paclitaxel. All experiments were performed at 60-80% confluency and cell lines routinely tested for Mycoplasma. For in vivo experiments, cells were trypsinized, centrifuged at 1000 rpm at 4° C. for 7 minutes, washed twice with HBSS, and resuspended at a concentration of 1.25×10^6 cells/ml (HeyA8) and 5×10^6 cells/ml (SKOV3ip1 and SKOV3ip2.TR).
(§2) Preparation of liposomal siRNA for in vivo delivery. For all in vivo experiments, siRNA constructs were incorporated into neutral liposomes (DOPC: 1,2-dioleoyl-sn-glycero-3-phosphatidylcholine), lyophilized, and stored at −20° C. (Landen et al., 2005). Prior to in vivo delivery, siRNA-DOPC preparations were resuspended with PBS to appropriate concentrations.
(§3) IL-8 siRNA therapy in an orthotopic murine ovarian cancer model. Female athymic nude mice were purchased from the National Cancer Institute-Frederick Cancer Research and Development Center (Frederick, Md.) and housed in specific pathogen-free conditions. […]
(§4) Development and characterization of the orthotopic murine model of advanced ovarian cancer used in these experiments has been previously described (Halder et al., 2006; Landen et al., 2005). […] Mice were monitored daily for signs of adverse effects and sacrificed when moribund. Tumor weights, number of tumor nodules, pattern of disease spread, presence and amount of ascites, and mouse weights were recorded at necropsy. […]

SKOV3ip2.TR = assay: IL-8 siRNA therapy in orthotopic murine ovarian cancer model, taxane-resistant SKOV3ip2.TR; format: in vivo, mice
Source text: as §1, §2, §3, §4

SKOV3ip1 [2] = assay: Tumor microvessel density (CD31) in orthotopic SKOV3ip1 tumors; format: in vivo, mice; conditions: CD31 staining
Procedure: (§5) Analysis of tumor microvessel density (CD31) and proliferation (PCNA). Microvessel density analysis was performed by immunostaining for CD31 antigen in orthotopic tumors as previously described (Halder et al., 2006). Briefly, frozen slides were rehydrated in acetone, blocked for endogenous peroxidases with H2O2 in methanol, and incubated overnight at 4° C. with rat anti-mouse m-CD31 antibodies (1:800; BD Bioscience, Pharmingen, San Jose, Calif.). The following day, slides were incubated with appropriate secondary antibody and detected with DAB substrate. Proliferation was assessed by staining for PCNA on paraffin slides as previously reported (Halder et al., 2006). After deparaffinization and rehydration, slides were heated in microwave at 98° C. for 10 min in 0.1M citrate buffer (pH 6.0) for antigen retrieval, blocked for endogenous peroxidases, and then incubated with fragment blocker (1:10; Jackson Immunoresearch Lab., West Grove, Pa.) overnight at 4° C. to reduce murine antigen interference. Following day, slides were incubated with primary antibody (1:50; anti-PCNA, PC-10, mouse IgG, Dako, Carpinteria, Calif.) for 4 hours at RT, washed with PBS, and re-incubated for 1 hour at RT with appropriate secondary. Detection was performed with DAB substrate. Quantification of MVD and proliferation was performed as previously described (Halder et al., 2006).

HeyA8 [3] = assay: Tumor microvessel density (CD31) in orthotopic HeyA8 tumors; format: in vivo, mice; conditions: CD31 staining
Procedure: as §5

SKOV3ip1 [4] = assay: IL-8 siRNA therapy in orthotopic murine ovarian cancer model, SKOV3ip1; format: in vivo, mice
Source text: as §1, §2, §3, §4

HeyA8 [5] = assay: Tumor cell proliferation (PCNA) in orthotopic HeyA8 tumors; format: in vivo, mice; conditions: compared to controls
Procedure: as §5

SKOV3ip1 [6] = assay: Tumor cell proliferation (PCNA) in orthotopic SKOV3ip1 tumors; format: in vivo, mice; conditions: compared to controls
Procedure: as §5

IL-8 mRNA = IL-8 mRNA expression by RT-PCR after in vitro siRNA transfection; format: cell-based, human; conditions: RT-PCR 36-48 hours after siRNA transfection, compared to control siRNA
Source text: as §1
SiRNA and in vitro transfections. […]
mRNA and protein IL-8 expression analysis for in vitro transfections. The expression of IL-8 in vitro was determined with RT-PCR and ELISA 36-48 hours after siRNA transfection. […] For ELISA, cells were treated with serum-free media day prior to analysis and IL-8 protein levels were quantified using a commercially available ELISA kit (R&D Systems, Minneapolis, Minn.). […]

MMP9 = MMP9 expression after IL-8 siRNA transfection in vitro; format: cell-based, human; conditions: HeyA8 and SKOV3ip1 cell lines; following siRNA transfection in vitro
IL-8 = assay: Secreted IL-8 protein by ELISA after in vitro siRNA transfection; format: cell-based, human; conditions: for IL-8 protein levels reduced by: ELISA 36-48 hours after siRNA transfection
Source text: as §1
SiRNA and in vitro transfections. IL-8 targeting siRNA purchased from Dharmacon (Lafayette, Colo.) was used to silence IL-8 expression in ovarian cancer cell lines (target sequence: GCCAAGGAGUGCUAAAGAA—SEQ ID NO:1). The sequence of the sense strand of the IL-8 siRNA is […] (SEQ ID NO:39) and the sequence of the antisense strand of the IL-8 siRNA is […] (SEQ ID NO:40). […] For in vitro transfections, 2×10^5 cells/well were plated into 6-well plates. The following day, cells were washed with PBS and incubated with 5 μg siRNA (IL-8 or control) with 30 μl of RNAiFect transfection reagent (Qiagen, Valencia, Calif.) in serum-containing media overnight at 37° C. Media was changed 24 hours after transfection and replaced with appropriate media.
mRNA and protein IL-8 expression analysis for in vitro transfections. The expression of IL-8 in vitro was determined with RT-PCR and ELISA 36-48 hours after siRNA transfection. For RT-PCR analysis, RNA was isolated according to manufacturer's protocol (Ambion RNAqueous Kit, Ambion, Austin, Tex.), transcribed into cDNA, and amplified: 94° C.×2 min, 94° C.×30 sec, 61° C.×30 sec, 72° C. 2 min, repeated for 21 cycles, and 72° C.×7 min (Primers: IL-8 sense […] (SEQ ID NO:48); IL-8 anti-sense […] (SEQ ID NO:49); GAPDH sense GAGCCACATCGCTCAGAC (SEQ ID NO:50); GAPDH anti-sense CTTCTCATGGTTCACACCC (SEQ ID NO:51)). For ELISA, cells were treated with serum-free media day prior to analysis and IL-8 protein levels were quantified using a commercially available ELISA kit (R&D Systems, Minneapolis, Minn.). All experiments were performed in duplicate and control siRNA was used for comparison.

MMP2 = MMP2 expression after IL-8 siRNA transfection in vitro; format: cell-based, human; conditions: HeyA8 and SKOV3ip1 cell lines; following siRNA transfection in vitro
HeyA8 cell line = assay: Tumor cell invasion in vitro; format: cell-based, human
[7] = HeyA8 cells, media collected at various time points

`CC(=O)O[C@@]12CO[C@@H]1C[C@H](O)[C@@]1(C)C(=O)[C@H](O)C3=C(C)[C@@H](OC(=O)[C@H](O)[C@@H](NC(=O)OC(C)(C)C)c4ccccc4)C[C@@](O)([C@@H](OC(=O)c4ccccc4)[C@H]21)C3(C)C` [docetaxel] was tested, and the “tumor burden, average number of tumor nodules (in words)” value (HeyA8 [1]; compared to controls) was “reduced tumor burden”, the “tumor growth reduction (tumor weight)” value (SKOV3ip2.TR; SKOV3ip2.TR taxane-resistant, compared to controls, docetaxel 35 μg) was 11% and the “effect on MVD / tumor angiogenesis (in words)” value (SKOV3ip1 [2]) was “Minimal effects”. For the same molecule, the “effect on MVD / tumor angiogenesis (in words)” value (HeyA8 [3]) was “Minimal effects”, the “tumor burden, average number of tumor nodules (in words)” value (SKOV3ip1 [4]; compared to controls) was “reduced tumor burden” and the “tumor cell proliferation, PCNA staining (in words)” value (HeyA8 [5]) was “effective in reducing proliferation; also recorded: decreased tumor cell proliferation”. The “tumor cell proliferation, PCNA staining (in words)” value (SKOV3ip1 [6]) was “effective in reducing proliferation; also recorded: decreased tumor cell proliferation”.
“IL-8 siRNA: IL-8 targeting siRNA from Dharmacon; sense GCCAAGGAGUGCUAAAGAAUU (SEQ ID NO:39), antisense UUCUUUAGCACUCCUUGGCUU (SEQ ID NO:40) (incorporated into neutral DOPC liposomes, further chemistry not given here)” was tested, and the “IL-8 mRNA expression” value (IL-8 mRNA; HeyA8) was “significantly reduced; also recorded: significantly decreased”, the “IL-8 mRNA expression” value (IL-8 mRNA; SKOV3ip1) was “significantly reduced; also recorded: significantly decreased” and the MMP9 expression (MMP9) was “decreased”. For the same molecule, the “No. nodules (mean ± SE)” value (HeyA8 [1]) was 3.4 ± 0.8, the “Tumor incidence (%)” value (HeyA8 [1]) was 100% and the “IL-8 protein levels reduced by” value (IL-8; HeyA8) was 79% and 80%. The “IL-8 returning to baseline, time after transfection” value (IL-8; [7]) was no more than 96 h, the “Maximum down regulation of IL-8, time after transfection” value (IL-8; [7]) was 48 h and the “IL-8 protein levels reduced by” value (IL-8; SKOV3ip1) was 81% and 80%. The “No. nodules (mean ± SE)” value (SKOV3ip2.TR; SKOV3ip2.TR) was 21.9 ± 3.4, the “Tumor incidence (%)” value (SKOV3ip2.TR; SKOV3ip2.TR) was 90% and the MMP2 expression (MMP2) was “decreased”. For the same molecule, the “No. nodules (mean ± SE)” value (SKOV3ip1 [4]) was 21.0 ± 7.3, the “Tumor incidence (%)” value (SKOV3ip1 [4]) was 70% and the “tumor cell invasion in vitro” value (HeyA8 cell line) was “decreased tumor cell invasion”.
